Results on 16 molecules are retold here after patent publication US20240307353A1, “JAK1 PATHWAY INHIBITORS FOR THE TREATMENT OF ASTHMA” (Incyte Corporation, priority 2023, published 2024).

A word on the IC50: it is the concentration that gives 50% inhibition. Read a low IC50 as greater potency.

One experiment addresses JAK2 (a.a. 828-1132) (Homo sapiens (Human), UniProt O60674). As to the kind of experiment: In vitro JAK kinase assay (HTRF), JAK2 versus JAK1. Conditions: IC50 ratio, 1 mM ATP. The class given is biochemical. On the technique in general: In TR-FRET formats the signal depends on donor and acceptor labels being close together.
Experiment [1] has as its target human JAK1 (a.a. 837-1142) (Homo sapiens, UniProt P23458). As to the kind of experiment: In vitro JAK kinase assay (HTRF), JAK1. Conditions: 1 mM ATP. The class given is biochemical.
Protocol: (§1) The catalytic activity of JAK1, JAK2 or JAK3 was assayed by measuring the phosphorylation of a biotinylated peptide. The phosphorylated peptide was detected by homogenous time resolved fluorescence (HTRF). […] Reactions were carried out at room temperature for 1 hour and then stopped with 20 μL 45 mM EDTA, 300 nM SA-APC, 6 nM Eu-Py20 in assay buffer (Perkin Elmer, Boston, MA). Binding to the Europium labeled antibody took place for 40 minutes and HTRF signal was measured on a Fusion plate reader (Perkin Elmer, Boston, MA).

Chain of JAK2 (a.a. 828-1132) (O60674 828-1132): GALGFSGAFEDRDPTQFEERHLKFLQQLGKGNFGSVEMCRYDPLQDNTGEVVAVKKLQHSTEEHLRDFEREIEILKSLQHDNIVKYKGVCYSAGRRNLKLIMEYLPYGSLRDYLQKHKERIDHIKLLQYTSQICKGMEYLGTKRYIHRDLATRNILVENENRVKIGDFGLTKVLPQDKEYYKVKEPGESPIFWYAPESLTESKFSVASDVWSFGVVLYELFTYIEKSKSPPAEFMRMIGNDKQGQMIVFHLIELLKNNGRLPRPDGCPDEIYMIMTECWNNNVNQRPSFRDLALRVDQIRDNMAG
Protocol for JAK2 (a.a. 828-1132): as §1

On to `N#CCC(C1CCN(c2cccc(Cl)n2)C1)n1cc(-c2ncnc3[nH]ccc23)cn1` (single isomer, unassigned) [Compound 6, 3-[1-(6-chloropyridin-2-yl)pyrrolidin-3-yl]-3-[4-(7H-pyrrolo[2,3-d]pyrimidin-4-yl)-1H-pyrazol-1-yl]propanenitrile], for which, at JAK2 (a.a. 828-1132), the JAK2/JAK1 is listed as over 10. For the same molecule, the IC50 in experiment [1] was under 10 nM.

Turning to `N#CCC1(n2cc(-c3ncnc4[nH]ccc34)cn2)CN(C2CCN(C(=O)Nc3ccc(F)cc3C(F)(F)F)CC2)C1` [Compound 2, 4-{3-(Cyanomethyl)-3-[4-(7H-pyrrolo[2,3-d]pyrimidin-4-yl)-1H-pyrazol-1-yl]azetidin-1-yl}-N-[4-fluoro-2-(trifluoromethyl)phenyl]piperidine-1-carboxamide], at JAK2 (a.a. 828-1132), the JAK2/JAK1 is given as over 10. Besides, in experiment [1], the IC50 is under 10 nM.

Consider `N#CCC1(n2cc(-c3ncnc4[nH]ccc34)cn2)CN(C2CCN(C(=O)c3ccnc(C(F)(F)F)n3)CC2)C1` [Compound 3, [3-[4-(7H-pyrrolo[2,3-d]pyrimidin-4-yl)-1H-pyrazol-1-yl]-1-(1-{[2-(trifluoromethyl)pyrimidin-4-yl]carbonyl}piperidin-4-yl)azetidin-3-yl]acetonitrile], for which the JAK2/JAK1 on JAK2 (a.a. 828-1132) was over 10. For the same molecule, in experiment [1], the IC50 is under 10 nM.

Consider `N#CCC1(n2cc(-c3ncnc4[nH]ccc34)cn2)CN(C2CCN(C(=O)c3ccnc(C(F)(F)F)c3F)CC2)C1` [Compound 4, {1-{1-[3-Fluoro-2-(trifluoromethyl)isonicotinoyl]piperidin-4-yl}-3-[4-(7H-pyrrolo[2,3-d]pyrimidin-4-yl)-1H-pyrazol-1-yl]azetidin-3-yl}acetonitrile], for which the JAK2/JAK1 at JAK2 (a.a. 828-1132) is over 10. The molecule further yielded an IC50 in experiment [1] of under 10 nM.

For the molecule `C[C@@H](O)c1nc2cnc3ccsc3c2n1[C@H]1CC[C@H](CC#N)OC1` [Compound 5, ((2R,5S)-5-{2-[(1R)-1-hydroxyethyl]-1H-imidazo[4,5-d]thieno[3,2-b]pyridin-1-yl}tetrahydro-2H-pyran-2-yl)acetonitrile], at JAK2 (a.a. 828-1132), the JAK2/JAK1 is reported as over 10. The IC50 in experiment [1] is under 100 nM.

As to `N#CCC(C1CCN(c2nc3cccnc3o2)C1)n1cc(-c2ncnc3[nH]ccc23)cn1` (centres unmarked) [Compound 7, 3-(1-[1,3]oxazolo[5,4-b]pyridin-2-ylpyrrolidin-3-yl)-3-[4-(7H-pyrrolo[2,3-d]pyrimidin-4-yl)-1H-pyrazol-1-yl]propanenitrile], the JAK2/JAK1 on JAK2 (a.a. 828-1132) is reported as over 10. This molecule also had an IC50 in experiment [1] of under 10 nM.

For the molecule `N#CCC(CN1CCN(C(=O)c2ccc(C#N)cc2F)CC1)n1cc(-c2ncnc3[nH]ccc23)cn1` (centres unmarked) [Compound 8, 4-[(4-{3-cyano-2-[4-(7H-pyrrolo[2,3-d]pyrimidin-4-yl)-1H-pyrazol-1-yl]propyl}piperazin-1-yl)carbonyl]-3-fluorobenzonitrile], the JAK2/JAK1 on JAK2 (a.a. 828-1132) was over 10. This molecule returned an IC50 in experiment [1] of under 10 nM.

Consider `N#CCC(CN1CCN(C(=O)c2ccc(C#N)cc2F)CC1)n1ccc(-c2ncnc3[nH]ccc23)c1` (centres unmarked) [Compound 9, 4-[(4-{3-cyano-2-[3-(7H-pyrrolo[2,3-d]pyrimidin-4-yl)-1H-pyrrol-1-yl]propyl}piperazin-1-yl)carbonyl]-3-fluorobenzonitrile], for which, at JAK2 (a.a. 828-1132), the JAK2/JAK1 is on record as over 10. The concentration for half-maximal inhibition (IC50) in experiment [1] was under 10 nM.

Consider `N#CC[C@]1(n2cc(-c3ncnc4[nH]ccc34)cn2)C[C@H](N2CCN(C(=O)c3ccnc(C(F)(F)F)n3)CC2)C1` [Compound 10, [trans-1-[4-(7H-pyrrolo[2,3-d]pyrimidin-4-yl)-1H-pyrazol-1-yl]-3-(4-{[2-(trifluoromethyl)pyrimidin-4-yl]carbonyl}piperazin-1-yl)cyclobutyl]acetonitrile], for which the JAK2/JAK1 on JAK2 (a.a. 828-1132) is reported as over 10. For the same molecule, in experiment [1], the IC50 is under 10 nM.

With `N#CC[C@]1(n2cc(-c3ncnc4[nH]ccc34)cn2)C[C@H](N2CCC(Oc3cc(CN4CC(O)C4)cc(C(F)(F)F)n3)CC2)C1` [Compound 11, {trans-3-(4-{[4-[(3-hydroxyazetidin-1-yl)methyl]-6-(trifluoromethyl)pyridin-2-yl]oxy}piperidin-1-yl)-1-[4-(7H-pyrrolo[2,3-d]pyrimidin-4-yl)-1H-pyrazol-1-yl]cyclobutyl}acetonitrile], the JAK2/JAK1 on JAK2 (a.a. 828-1132) is over 10. Moreover, in experiment [1], the IC50 is under 10 nM.

Consider `N#CC[C@]1(n2cc(-c3ncnc4[nH]ccc34)cn2)C[C@H](N2CCC(Oc3cc(CN4CCC[C@H]4CO)cc(C(F)(F)F)n3)CC2)C1` [Compound 12, {trans-3-(4-{[4-{[(2S)-2-(hydroxymethyl)pyrrolidin-1-yl]methyl}-6-(trifluoromethyl)pyridin-2-yl]oxy}piperidin-1-yl)-1-[4-(7H-pyrrolo[2,3-d]pyrimidin-4-yl)-1H-pyrazol-1-yl]cyclobutyl}acetonitrile], for which the JAK2/JAK1 at JAK2 (a.a. 828-1132) is reported as over 10. The IC50 in experiment [1] was under 10 nM.

Consider `N#CC[C@]1(n2cc(-c3ncnc4[nH]ccc34)cn2)C[C@H](N2CCC(Oc3cc(CN4CCC[C@@H]4CO)cc(C(F)(F)F)n3)CC2)C1` [Compound 13, {trans-3-(4-{[4-{[(2R)-2-(hydroxymethyl)pyrrolidin-1-yl]methyl}-6-(trifluoromethyl)pyridin-2-yl]oxy}piperidin-1-yl)-1-[4-(7H-pyrrolo[2,3-d]pyrimidin-4-yl)-1H-pyrazol-1-yl]cyclobutyl}acetonitrile], for which, at JAK2 (a.a. 828-1132), the JAK2/JAK1 was over 10. In experiment [1], this molecule displayed an IC50 of under 10 nM.

`C[C@H](NC(=O)c1cc(F)c(N2CC(CC#N)(n3cc(-c4ncnc5[nH]ccc45)cn3)C2)cc1F)C(F)(F)F` [Compound 16, 4-{3-(cyanomethyl)-3-[4-(7H-pyrrolo[2,3-d]pyrimidin-4-yl)-1H-pyrazol-1-yl]azetidin-1-yl}-2,5-difluoro-N-[(1S)-2,2,2-trifluoro-1-methylethyl]benzamide]: on JAK2 (a.a. 828-1132), the JAK2/JAK1 was over 10. Besides, the IC50 in experiment [1] is under 10 nM.

With `N#CCC1(n2cc(-c3ncnc4[nH]ccc34)cn2)CN([C@H]2CC[C@@H](Oc3cc(CCO)nc(C(F)(F)F)n3)CC2)C1` [Compound 18, {1-(cis-4-{[6-(2-hydroxyethyl)-2-(trifluoromethyl)pyrimidin-4-yl]oxy}cyclohexyl)-3-[4-(7H-pyrrolo[2,3-d]pyrimidin-4-yl)-1H-pyrazol-1-yl]azetidin-3-yl}acetonitrile], the JAK2/JAK1 at JAK2 (a.a. 828-1132) was over 10. In addition, the IC50 in experiment [1] is under 10 nM.

Turning to `CCNCc1cc(O[C@H]2CC[C@@H](N3CC(CC#N)(n4cc(-c5ncnc6[nH]ccc56)cn4)C3)CC2)nc(C(F)(F)F)c1` [Compound 19, {1-(cis-4-{[4-[(ethylamino)methyl]-6-(trifluoromethyl)pyridin-2-yl]oxy}cyclohexyl)-3-[4-(7H-pyrrolo[2,3-d]pyrimidin-4-yl)-1H-pyrazol-1-yl]azetidin-3-yl}acetonitrile], the JAK2/JAK1 at JAK2 (a.a. 828-1132) is over 10. The molecule further returned an IC50 in experiment [1] of under 10 nM.

In the case of `CC(C)(O)c1cc(O[C@H]2CC[C@@H](N3CC(CC#N)(n4cc(-c5ncnc6[nH]ccc56)cn4)C3)CC2)nc(C(F)(F)F)c1` [Compound 20, {1-(cis-4-{[4-(1-hydroxy-1-methylethyl)-6-(trifluoromethyl)pyridin-2-yl]oxy}cyclohexyl)-3-[4-(7H-pyrrolo[2,3-d]pyrimidin-4-yl)-1H-pyrazol-1-yl]azetidin-3-yl}acetonitrile], the JAK2/JAK1 on JAK2 (a.a. 828-1132) is reported as over 10. This molecule also gave an IC50 in experiment [1] of under 10 nM.
